Test results from the kinase profiling compilation of Christmann-Franck et al. (2016).

Key:
Experiment in all cases: radiometric filter-binding kinase assay
[1] = system: OXSR1 (human), O95747 [T185E]
PRKCG (human) = PRKCG (human) (UniProt P05129)
ABL1 (human) = ABL1 (human) (UniProt P00519)
MAP2K6 (human) = MAP2K6 (human) (UniProt P52564)
TLK1 (human) = TLK1 (human) (UniProt Q9UKI8)
NUAK1 (human) = NUAK1 (human) (UniProt O60285)
STK16 (human) = STK16 (human) (UniProt O75716)
TTBK1 (human) = TTBK1 (human) (UniProt Q5TCY1)
PTK6 (human) = PTK6 (human) (UniProt Q13882)
STK33 (human) = STK33 (human) (UniProt Q9BYT3)
TEK (human) = TEK (human) (UniProt Q02763)
ZAP70 (human) = ZAP70 (human) (UniProt P43403)
EIF2AK3 (human) = EIF2AK3 (human) (UniProt Q9NZJ5)
TSSK1B (human) = TSSK1B (human) (UniProt Q9BXA7)
TESK1 (human) = TESK1 (human) (UniProt Q15569)
IRAK1 (human) = IRAK1 (human) (UniProt P51617)

Sequence of ABL1 (human) (P00519 whole entry, looked up): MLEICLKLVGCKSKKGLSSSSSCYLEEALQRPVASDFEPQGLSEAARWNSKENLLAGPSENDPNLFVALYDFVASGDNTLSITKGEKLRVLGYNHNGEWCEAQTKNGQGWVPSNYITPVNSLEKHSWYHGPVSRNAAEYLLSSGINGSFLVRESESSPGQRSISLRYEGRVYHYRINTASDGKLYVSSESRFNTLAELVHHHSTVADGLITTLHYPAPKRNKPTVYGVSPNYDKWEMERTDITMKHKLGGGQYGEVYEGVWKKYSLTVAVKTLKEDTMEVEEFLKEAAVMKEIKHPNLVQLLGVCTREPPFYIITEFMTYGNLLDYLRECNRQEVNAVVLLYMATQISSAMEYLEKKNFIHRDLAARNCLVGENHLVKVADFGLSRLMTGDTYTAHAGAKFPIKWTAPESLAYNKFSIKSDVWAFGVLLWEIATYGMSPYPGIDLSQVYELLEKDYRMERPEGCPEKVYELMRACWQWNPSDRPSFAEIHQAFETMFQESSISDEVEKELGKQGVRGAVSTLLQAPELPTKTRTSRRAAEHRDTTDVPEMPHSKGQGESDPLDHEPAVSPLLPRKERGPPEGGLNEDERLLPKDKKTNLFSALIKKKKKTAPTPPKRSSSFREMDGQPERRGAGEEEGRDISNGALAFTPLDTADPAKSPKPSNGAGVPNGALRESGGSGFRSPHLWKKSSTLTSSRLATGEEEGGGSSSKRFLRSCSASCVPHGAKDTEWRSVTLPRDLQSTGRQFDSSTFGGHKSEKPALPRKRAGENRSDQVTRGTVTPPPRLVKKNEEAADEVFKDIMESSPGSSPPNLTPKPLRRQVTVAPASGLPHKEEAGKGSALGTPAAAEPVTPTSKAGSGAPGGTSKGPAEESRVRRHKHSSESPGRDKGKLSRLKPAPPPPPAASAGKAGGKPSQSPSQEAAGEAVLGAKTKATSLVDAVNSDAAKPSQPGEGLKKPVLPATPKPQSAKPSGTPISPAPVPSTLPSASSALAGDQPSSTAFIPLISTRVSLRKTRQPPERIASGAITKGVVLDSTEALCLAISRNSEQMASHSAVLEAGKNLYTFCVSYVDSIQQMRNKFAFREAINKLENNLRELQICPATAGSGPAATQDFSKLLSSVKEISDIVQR
Sequence of ZAP70 (human) (P43403 whole entry, looked up): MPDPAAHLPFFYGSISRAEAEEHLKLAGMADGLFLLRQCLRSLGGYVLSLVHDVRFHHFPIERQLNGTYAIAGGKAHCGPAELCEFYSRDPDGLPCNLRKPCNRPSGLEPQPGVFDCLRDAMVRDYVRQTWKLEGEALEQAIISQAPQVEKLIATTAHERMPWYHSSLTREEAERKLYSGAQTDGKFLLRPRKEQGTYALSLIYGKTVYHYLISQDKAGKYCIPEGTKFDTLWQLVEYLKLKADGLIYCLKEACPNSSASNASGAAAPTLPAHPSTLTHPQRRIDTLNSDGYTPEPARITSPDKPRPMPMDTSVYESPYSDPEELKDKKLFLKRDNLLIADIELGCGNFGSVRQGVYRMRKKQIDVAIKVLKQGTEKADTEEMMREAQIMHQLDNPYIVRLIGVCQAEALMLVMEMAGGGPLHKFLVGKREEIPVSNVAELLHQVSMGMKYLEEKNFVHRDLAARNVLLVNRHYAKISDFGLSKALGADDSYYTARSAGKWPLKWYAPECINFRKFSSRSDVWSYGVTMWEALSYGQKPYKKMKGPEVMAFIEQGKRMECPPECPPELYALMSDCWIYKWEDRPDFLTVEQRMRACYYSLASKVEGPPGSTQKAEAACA
Sequence of MAP2K6 (human) (P52564 whole entry, looked up): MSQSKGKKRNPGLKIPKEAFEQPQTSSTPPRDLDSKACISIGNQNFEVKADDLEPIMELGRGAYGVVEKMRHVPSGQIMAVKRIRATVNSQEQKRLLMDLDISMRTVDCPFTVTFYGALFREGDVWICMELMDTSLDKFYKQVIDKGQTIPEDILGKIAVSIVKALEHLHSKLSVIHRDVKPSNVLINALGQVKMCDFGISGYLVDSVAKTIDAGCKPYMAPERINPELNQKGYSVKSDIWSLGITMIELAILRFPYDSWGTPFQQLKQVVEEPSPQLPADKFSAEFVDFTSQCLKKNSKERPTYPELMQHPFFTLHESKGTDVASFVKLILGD
Sequence of TSSK1B (human) (Q9BXA7 whole entry, looked up): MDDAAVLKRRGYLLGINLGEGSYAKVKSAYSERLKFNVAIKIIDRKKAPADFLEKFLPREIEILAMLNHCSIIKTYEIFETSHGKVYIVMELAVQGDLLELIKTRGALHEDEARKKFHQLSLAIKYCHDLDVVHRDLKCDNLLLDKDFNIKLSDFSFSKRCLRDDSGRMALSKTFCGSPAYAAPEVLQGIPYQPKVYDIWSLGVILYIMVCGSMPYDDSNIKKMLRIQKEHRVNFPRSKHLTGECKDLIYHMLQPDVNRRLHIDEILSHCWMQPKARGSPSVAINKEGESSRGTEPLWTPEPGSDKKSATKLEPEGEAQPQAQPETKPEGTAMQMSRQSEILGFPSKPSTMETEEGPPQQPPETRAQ
Sequence of TTBK1 (human) (Q5TCY1 whole entry, looked up): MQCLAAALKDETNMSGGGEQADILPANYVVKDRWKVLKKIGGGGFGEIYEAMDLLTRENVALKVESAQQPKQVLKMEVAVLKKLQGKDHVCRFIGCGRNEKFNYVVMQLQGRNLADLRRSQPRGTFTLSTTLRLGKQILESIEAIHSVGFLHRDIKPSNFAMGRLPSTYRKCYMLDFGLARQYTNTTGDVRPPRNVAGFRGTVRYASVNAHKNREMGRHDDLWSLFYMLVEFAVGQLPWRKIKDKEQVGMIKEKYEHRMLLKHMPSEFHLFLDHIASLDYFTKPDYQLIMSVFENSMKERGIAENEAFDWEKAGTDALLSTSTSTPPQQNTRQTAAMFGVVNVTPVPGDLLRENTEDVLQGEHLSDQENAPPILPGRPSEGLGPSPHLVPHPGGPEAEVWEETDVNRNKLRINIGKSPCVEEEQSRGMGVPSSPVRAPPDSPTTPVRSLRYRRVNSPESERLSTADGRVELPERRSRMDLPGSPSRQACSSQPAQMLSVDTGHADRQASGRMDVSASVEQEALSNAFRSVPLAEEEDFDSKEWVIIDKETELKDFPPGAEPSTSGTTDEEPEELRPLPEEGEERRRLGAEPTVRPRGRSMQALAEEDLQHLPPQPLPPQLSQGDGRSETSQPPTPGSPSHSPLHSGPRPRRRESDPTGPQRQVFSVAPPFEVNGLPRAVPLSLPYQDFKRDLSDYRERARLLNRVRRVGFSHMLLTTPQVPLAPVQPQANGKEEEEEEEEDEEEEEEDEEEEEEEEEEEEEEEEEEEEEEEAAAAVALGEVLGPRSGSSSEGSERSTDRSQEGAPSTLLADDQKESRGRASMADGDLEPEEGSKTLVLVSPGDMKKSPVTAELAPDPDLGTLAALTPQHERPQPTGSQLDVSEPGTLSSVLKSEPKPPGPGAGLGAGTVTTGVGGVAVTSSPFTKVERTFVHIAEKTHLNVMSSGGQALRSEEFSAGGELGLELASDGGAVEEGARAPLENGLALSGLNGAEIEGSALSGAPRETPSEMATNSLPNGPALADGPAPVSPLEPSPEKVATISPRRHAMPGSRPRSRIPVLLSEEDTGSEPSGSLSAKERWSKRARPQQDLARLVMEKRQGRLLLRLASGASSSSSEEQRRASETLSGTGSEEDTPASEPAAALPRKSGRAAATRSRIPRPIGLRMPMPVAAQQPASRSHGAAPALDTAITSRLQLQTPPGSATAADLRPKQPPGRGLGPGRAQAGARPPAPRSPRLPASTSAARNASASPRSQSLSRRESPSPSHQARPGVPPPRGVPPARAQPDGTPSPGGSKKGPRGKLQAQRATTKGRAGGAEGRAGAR
Sequence of STK16 (human) (O75716 whole entry, looked up): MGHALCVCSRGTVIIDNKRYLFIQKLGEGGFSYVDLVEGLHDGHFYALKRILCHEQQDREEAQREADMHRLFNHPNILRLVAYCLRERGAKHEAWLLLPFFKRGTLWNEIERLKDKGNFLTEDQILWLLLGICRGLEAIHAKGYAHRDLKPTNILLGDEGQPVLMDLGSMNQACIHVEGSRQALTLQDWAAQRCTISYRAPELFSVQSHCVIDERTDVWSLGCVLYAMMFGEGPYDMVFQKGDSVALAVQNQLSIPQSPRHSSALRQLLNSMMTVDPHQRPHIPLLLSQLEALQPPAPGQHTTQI

C=CC(=O)N1CCC[C@@H](n2nc(-c3ccc(Oc4ccccc4)cc3)c3c(N)ncnc32)C1
residual activity ([1]; compound 0.1 µM): 96% | residual activity ([1]; compound 1.0 µM): 96% | residual activity ([1]; compound 10.0 µM): 82% | residual activity (PRKCG (human); compound 0.1 µM): 85% | residual activity (PRKCG (human); compound 1.0 µM): 104% | residual activity (PRKCG (human); compound 10.0 µM): 99% | residual activity (ABL1 (human); compound 0.1 µM): 87% | residual activity (ABL1 (human); compound 1.0 µM): 80% | residual activity (ABL1 (human); compound 10.0 µM): 39% | residual activity (MAP2K6 (human); compound 0.1 µM): 82% | residual activity (MAP2K6 (human); compound 1.0 µM): 97% | residual activity (MAP2K6 (human); compound 10.0 µM): 61% | residual activity (TLK1 (human); compound 1.0 µM): 99% | residual activity (NUAK1 (human); compound 0.1 µM): 99% | residual activity (NUAK1 (human); compound 1.0 µM): 82% | residual activity (NUAK1 (human); compound 10.0 µM): 26% | residual activity (STK16 (human); compound 0.1 µM): 99% | residual activity (STK16 (human); compound 1.0 µM): 117% | residual activity (STK16 (human); compound 10.0 µM): 104% | residual activity (TTBK1 (human); compound 0.1 µM): 78% | residual activity (TTBK1 (human); compound 1.0 µM): 100% | residual activity (TTBK1 (human); compound 10.0 µM): 81% | residual activity (PTK6 (human); compound 0.1 µM): 10% | residual activity (PTK6 (human); compound 1.0 µM): 4% | residual activity (PTK6 (human); compound 10.0 µM): 8% | residual activity (STK33 (human); compound 0.1 µM): 97% | residual activity (STK33 (human); compound 1.0 µM): 84% | residual activity (TEK (human); compound 0.1 µM): 71% | residual activity (TEK (human); compound 1.0 µM): 34% | residual activity (TEK (human); compound 10.0 µM): 9% | residual activity (ZAP70 (human); compound 0.1 µM): 93% | residual activity (ZAP70 (human); compound 1.0 µM): 107% | residual activity (ZAP70 (human); compound 10.0 µM): 101% | residual activity (EIF2AK3 (human); compound 0.1 µM): 110% | residual activity (EIF2AK3 (human); compound 1.0 µM): 81% | residual activity (EIF2AK3 (human); compound 10.0 µM): 28% | residual activity (TSSK1B (human); compound 0.1 µM): 105% | residual activity (TSSK1B (human); compound 1.0 µM): 108% | residual activity (TSSK1B (human); compound 10.0 µM): 68% | residual activity (TESK1 (human); compound 0.1 µM): 69% | residual activity (TESK1 (human); compound 1.0 µM): 71% | residual activity (TESK1 (human); compound 10.0 µM): 38% | residual activity (IRAK1 (human); compound 0.1 µM): 108% | residual activity (IRAK1 (human); compound 1.0 µM): 115%

CC(C)(C#N)c1ccc(N2C(=O)OCc3cnc4ccc(-c5cnc6ccccc6c5)cc4c32)cc1
residual activity ([1]; compound 1.0 µM): 102% | residual activity ([1]; compound 10.0 µM): 103% | residual activity (PRKCG (human); compound 1.0 µM): 111% | residual activity (PRKCG (human); compound 10.0 µM): 99% | residual activity (ABL1 (human); compound 1.0 µM): 93% | residual activity (ABL1 (human); compound 10.0 µM): 103% | residual activity (MAP2K6 (human); compound 1.0 µM): 101% | residual activity (MAP2K6 (human); compound 10.0 µM): 92% | residual activity (TLK1 (human); compound 1.0 µM): 84% | residual activity (TLK1 (human); compound 10.0 µM): 101% | residual activity (NUAK1 (human); compound 1.0 µM): 32% | residual activity (NUAK1 (human); compound 10.0 µM): 16% | residual activity (STK16 (human); compound 1.0 µM): 87% | residual activity (STK16 (human); compound 10.0 µM): 100% | residual activity (TTBK1 (human); compound 1.0 µM): 110% | residual activity (TTBK1 (human); compound 10.0 µM): 100% | residual activity (PTK6 (human); compound 1.0 µM): 96% | residual activity (PTK6 (human); compound 10.0 µM): 97% | residual activity (STK33 (human); compound 10.0 µM): 98% | residual activity (TEK (human); compound 1.0 µM): 93% | residual activity (TEK (human); compound 10.0 µM): 95% | residual activity (ZAP70 (human); compound 1.0 µM): 75% | residual activity (ZAP70 (human); compound 10.0 µM): 77% | residual activity (EIF2AK3 (human); compound 1.0 µM): 101% | residual activity (EIF2AK3 (human); compound 10.0 µM): 97% | residual activity (TSSK1B (human); compound 10.0 µM): 103% | residual activity (TESK1 (human); compound 1.0 µM): 116% | residual activity (TESK1 (human); compound 10.0 µM): 108% | residual activity (IRAK1 (human); compound 1.0 µM): 79% | residual activity (IRAK1 (human); compound 10.0 µM): 56%

Cc1ccc(=O)n(-c2ccccc2)c1
residual activity ([1]; compound 10.0 µM): 115% | residual activity (PRKCG (human); compound 1.0 µM): 99% | residual activity (PRKCG (human); compound 10.0 µM): 94% | residual activity (ABL1 (human); compound 1.0 µM): 106% | residual activity (ABL1 (human); compound 10.0 µM): 112% | residual activity (MAP2K6 (human); compound 1.0 µM): 106% | residual activity (MAP2K6 (human); compound 10.0 µM): 88% | residual activity (TLK1 (human); compound 1.0 µM): 113% | residual activity (TLK1 (human); compound 10.0 µM): 115% | residual activity (NUAK1 (human); compound 1.0 µM): 115% | residual activity (NUAK1 (human); compound 10.0 µM): 100% | residual activity (STK16 (human); compound 1.0 µM): 87% | residual activity (STK16 (human); compound 10.0 µM): 96% | residual activity (TTBK1 (human); compound 1.0 µM): 124% | residual activity (TTBK1 (human); compound 10.0 µM): 107% | residual activity (PTK6 (human); compound 1.0 µM): 101% | residual activity (PTK6 (human); compound 10.0 µM): 92% | residual activity (STK33 (human); compound 1.0 µM): 82% | residual activity (STK33 (human); compound 10.0 µM): 90% | residual activity (TEK (human); compound 1.0 µM): 110% | residual activity (TEK (human); compound 10.0 µM): 118% | residual activity (ZAP70 (human); compound 1.0 µM): 110% | residual activity (EIF2AK3 (human); compound 1.0 µM): 106% | residual activity (EIF2AK3 (human); compound 10.0 µM): 105% | residual activity (TSSK1B (human); compound 1.0 µM): 87% | residual activity (TSSK1B (human); compound 10.0 µM): 91% | residual activity (TESK1 (human); compound 1.0 µM): 94% | residual activity (TESK1 (human); compound 10.0 µM): 82% | residual activity (IRAK1 (human); compound 1.0 µM): 105%
